In US12043600B2, “Microbiocidal compounds” (SYNGENTA CROP PROTECTION AG, priority 2018, dated 2024):
Where two headings read alike, the source gives them in different places.

How the values were obtained:
[1] = test system: Phaeosphaeria nodorum (Septoria nodorum); test: Phaeosphaeria nodorum (Septoria nodorum)/Wheat/Leaf Disc Preventative (Glume Blotch); type: in vivo; conditions: Parastagonospora nodorum, foliar, wheat leaf disc preventative, compared to untreated control
Outline: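 Preventative test: compound spray first, then spore inoculation after 2 days on cv. Kanzler wheat leaf segments. Incubation in a climate cabinet at 20 °C and 75% rh under a 12 h light/12 h dark cycle. Activity rated as % control relative to untreated discs at 5–7 days post-application.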

[2] = test system: Puccinia recondita f. sp. tritici; test: Puccinia recondita f. sp. tritici/Wheat/Leaf Disc Preventative (Brown Rust); type: in vivo; conditions: foliar, 200 ppm, wheat leaf disc preventative, compared to untreated control, read-out: control of Puccinia recondita f. sp. tritici
Alternaria solani = test: Alternaria solani/Tomato/Leaf Disc (Early Blight); type: in vivo; conditions: foliar, tomato leaf disc, compared to untreated control
Experimental: Tomato leaf disks cv. Baby are placed on agar in multiwell plates (24-well format) and sprayed with the formulated test compound diluted in water. The leaf disks are inoculated with a spore suspension of the fungus 2 days after application. The inoculated leaf disks are incubated at 23° C./21° C. (day/night) and 80% rh (relative humidity) under a light regime of 12/12 h (light/dark) in a climate cabinet and the activity of a compound is assessed as percent disease control compared to untreated when an appropriate level of disease damage appears on untreated check disk leaf disks (5-7 days after application).

[3] = test system: Monographella nivalis (Microdochium nivale); test: Monographella nivalis (Microdochium nivale)/Liquid Culture (Foot Rot Cereals); type: cell-based; conditions: liquid culture, compared to untreated control
Outline: (§1)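 Liquid-culture format using potato dextrose broth inoculated directly with cryopreserved conidia, dosed with compound from a DMSO solution.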

[4] = test system: Mycosphaerella arachidis (Cercospora arachidicola); test: Mycosphaerella arachidis (Cercospora arachidicola)/Liquid Culture (Early Leaf Spot); type: cell-based; conditions: liquid culture, compared to untreated control
Outline: as §1

Plasmopara viticola = test: whole plant or invertebrate; type: in vivo; conditions: foliar, read-out: control of Plasmopara viticola
Pyrenophora teres = test: Pyrenophora teres/Barley/Leaf Disc Preventative (Net Blotch); type: in vivo; conditions: foliar, 200 ppm, barley leaf disc preventative, compared to untreated control, read-out: control of Pyrenophora teres
Outline: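 Preventative leaf-disc test: inoculation with fungal spores took place 2 days after spraying segments of barley cv. Hasso, placed on agar, with water-diluted formulated compound. Read-out is % disease control per compound.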

[5] = test system: Magnaporthe grisea (Pyricularia oryzae); test: whole plant or invertebrate; type: in vivo; conditions: foliar, read-out: control of Magnaporthe grisea
Phytophthora infestans = test: whole plant or invertebrate; type: in vivo; conditions: in Solanum lycopersicum, foliar, read-out: control of Phytophthora infestans
[6] = test system: Mycosphaerella graminicola (Septoria tritici); test: Mycosphaerella graminicola (Septoria tritici)/Liquid Culture (Septoria Blotch); type: cell-based; conditions: Zymoseptoria tritici; 20 ppm; liquid culture; compared to untreated control
Outline: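 Results given as % disease control: test compound in DMSO was placed in wells first, then potato dextrose broth carrying cryostored fungal conidia was added.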

[7] = test system: Glomerella lagenarium (Colletotrichum lagenarium); test: Glomerella lagenarium (Colletotrichum lagenarium)/Liquid Culture (Anthracnose); type: cell-based; conditions: Colletotrichum orbiculare, liquid culture, compared to untreated control
[8] = test system: Blumeria graminis f. sp. tritici (Erysiphe graminis f. sp. tritici); test: Blumeria graminis f. sp. tritici/Wheat/Leaf Disc Preventative (Powdery Mildew on Wheat); type: in vivo; conditions: foliar, wheat leaf disc preventative, compared to untreated control
Outline: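 Preventative leaf-disc test: percent disease control versus untreated leaf segments read 6-8 days post-application. Compound spray applied to wheat cv. Kanzler segments on agar one day before shaking infected plants over them; incubation at 20° C and 60% rh, 24 h darkness then 12 h light/12 h dark cycles.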

Phakopsora pachyrhizi = test: Phakopsora pachyrhizi/Soybean/Preventative (Soybean Rust); type: in vivo; conditions: 288 h
[9] = test system: Puccinia recondita f. sp. tritici; test: Puccinia recondita f. sp. tritici/Wheat/Leaf Disc Curative (Brown Rust); type: in vivo; conditions: foliar, wheat leaf disc curative, compared to untreated control
Outline: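 Formulated compound, diluted in water, is applied to inoculated wheat cv. Kanzler leaf segments on agar one day post-inoculation (pre-incubation dark, 19° C, 75% rh). After 6-8 days at 19° C, 75% rh and 12 h/12 h light, activity is rated as percent disease control relative to untreated segments.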

[10] = test system: Botryotinia fuckeliana (Botrytis cinerea); test: Botryotinia fuckeliana (Botrytis cinerea)/Liquid Culture (Gray Mould); type: cell-based; conditions: liquid culture, compared to untreated control
Experimental: Conidia of the fungus from cryogenic storage are directly mixed into nutrient broth (Vogels broth). After placing a (DMSO) solution of test compound into a microtiter plate (96-well format), the nutrient broth containing the fungal spores is added.

SMILES | pest or weed control at 200 ppm [1] [%] | pest or weed control at 200 ppm [2] [%] | pest or weed control at 200 ppm (Alternaria solani) [%] | inhibition of growth at 20 ppm [3] [%] | inhibition of growth at 20 ppm [4] [%] | pest or weed control at 200 ppm (Plasmopara viticola) [%] | melting point [°C] | pest or weed control at 200 ppm (Pyrenophora teres) [%] | pest or weed control at 200 ppm [5] [%] | pest or weed control at 200 ppm (Phytophthora infestans) [%] | inhibition of growth at 20 ppm [6] [%] | inhibition of growth at 20 ppm [7] [%] | pest or weed control at 200 ppm [8] [%] | pest or weed control at 200 ppm [9] [%] | other results
CO/C=C(\Oc1cc(-n2ccc(C#CC3CC3)n2)ccc1C)C(=O)OC [Compound E-1, methyl (Z)-2-[5-[3-(2-cyclopropylethynyl)pyra-zol-1-yl]-2-methyl-phenoxy]-3-methoxy-prop-2-enoate] | ≥ 80 | ≥ 80 | ≥ 80 | ≥ 80 | ≥ 80 | ≥ 80 | 158 to 162 | ≥ 80 | ≥ 80 | ≥ 80 | ≥ 80 |  |  |  | 
CO/C=C(\Oc1cc(-n2ncc(C(C)C)n2)ccc1C)C(=O)OC [Compound F-4, methyl (Z)-2-[5-(4-isopropyltriazol-2-yl)-2-methyl-phenoxy]-3-methoxy-prop-2-enoate] | ≥ 80 |  | ≥ 80 | ≥ 80 | ≥ 80 | ≥ 80 |  | ≥ 80 | ≥ 80 | ≥ 80 | ≥ 80 | ≥ 80 | ≥ 80 |  | 
CO/C=C(\Oc1cc(-n2ccc(C3(C)CC3)n2)ccc1C)C(=O)OC [Compound E-82, methyl (Z)-3-methoxy-2-[2-methyl-5-[3-(1-methylcyclopropyl)pyra-zol-1-yl]phenoxy]prop-2-enoate] | ≥ 80 | ≥ 80 | ≥ 80 | ≥ 80 | ≥ 80 | ≥ 80 | 83 to 86 | ≥ 80 | ≥ 80 | ≥ 80 | ≥ 80 | ≥ 80 | ≥ 80 | ≥ 80 | pest or weed control at 200 ppm (Phakopsora pachyrhizi; foliar, soybean leaf disc preventative, compared to untreated control, read-out: control of Phakopsora pachyrhizi): ≥ 50%; inhibition of growth at 20 ppm [10]: ≥ 80%
CO/C=C(\Oc1cc(-n2ncc(Br)n2)ccc1C)C(=O)OC [Compound F-1, methyl (Z)-2-[5-(4-bromotriazol-2-yl)-2-methyl-phenoxy]-3-methoxy-prop-2-enoate] | ≥ 80 | ≥ 80 | ≥ 80 | ≥ 80 | ≥ 80 | ≥ 80 |  | ≥ 80 | ≥ 80 | ≥ 80 | ≥ 80 | ≥ 80 | ≥ 80 | ≥ 80 | 
CO/C=C(\Oc1cc(-n2ncc(C3CCCC3)n2)ccc1C)C(=O)OC [Compound F-5, methyl (Z)-2-[5-(4-cyclopentyltriazol-2-yl)-2-methyl-phenoxy]-3-methoxy-prop-2-enoate] | ≥ 80 | ≥ 80 | ≥ 80 | ≥ 80 | ≥ 80 | ≥ 80 |  | ≥ 80 | ≥ 80 | ≥ 80 | ≥ 80 | ≥ 80 | ≥ 80 | ≥ 80 | 
CO/C=C(\Oc1cc(-n2nc(Br)c(Br)n2)ccc1C)C(=O)OC [Compound F-10, methyl (Z)-2-[5-(4,5-dibromotriazol-2-yl)-2-methyl-phenoxy]-3-methoxy-prop-2-enoate] | ≥ 80 | ≥ 80 | ≥ 80 |  | ≥ 80 | ≥ 80 |  | ≥ 80 | ≥ 80 | ≥ 80 | ≥ 80 | ≥ 80 | ≥ 80 |  | 
CCCc1cnn(-c2ccc(C)c(O/C(=C\OC)C(=O)OC)c2)n1 [Compound F-2, methyl (Z)-3-methoxy-2-[2-methyl-5-(4-propyltriazol-2-yl)phenoxy]prop-2-enoate] | ≥ 80 |  | ≥ 80 | ≥ 80 | ≥ 80 | ≥ 80 |  | ≥ 80 | ≥ 80 | ≥ 80 | ≥ 80 | ≥ 80 |  |  | pest or weed control at 0.6 ppm (Phakopsora pachyrhizi; Phakopsora pachyrhizi (Soybean rust), 0.6 ppm): 0%; pest or weed control at 2 ppm (Phakopsora pachyrhizi; Phakopsora pachyrhizi (Soybean rust), 2 ppm): 20%; pest or weed control at 6 ppm (Phakopsora pachyrhizi; Phakopsora pachyrhizi (Soybean rust), 6 ppm): 50%; pest or weed control at 20 ppm (Phakopsora pachyrhizi; Phakopsora pachyrhizi (Soybean rust), 20 ppm): 90%; pest or weed control at 60 ppm (Phakopsora pachyrhizi; Phakopsora pachyrhizi (Soybean rust), 60 ppm): 100%; pest or weed control at 200 ppm (Phakopsora pachyrhizi; Phakopsora pachyrhizi (Soybean rust), read-out: control (%)): 100%
CO/C=C(\Oc1cc(-n2ccc(C(C)C)n2)c(Cl)cc1C)C(=O)OC [Compound E-29, methyl (Z)-2-[4-chloro-5-(3-isopropylpyrazol-1-yl)-2-methyl-phenoxy]-3-methoxy-prop-2-enoate] | ≥ 80 | ≥ 80 | ≥ 80 | ≥ 80 | ≥ 80 | ≥ 80 | 96 to 98 |  | ≥ 80 | ≥ 80 | ≥ 80 | ≥ 80 | ≥ 80 | ≥ 80 | inhibition of growth at 20 ppm [10]: ≥ 80%
CO/C=C(\Oc1cc(-n2ccc(Br)n2)ccc1C)C(=O)OC [Compound E-83, methyl (Z)-2-[5-(3-bromopyrazol-1-yl)-2-methyl-phenoxy]-3-methoxy-prop-2-enoate] | ≥ 80 | ≥ 80 | ≥ 80 | ≥ 80 | ≥ 80 | ≥ 80 | 106 to 110 | ≥ 80 | ≥ 80 | ≥ 80 | ≥ 80 | ≥ 80 | ≥ 80 |  | 
CO/C=C(\Oc1cc(-n2ncc(C(C)=NO)n2)ccc1C)C(=O)OC [Compound F-13, methyl (Z)-2-[5-[4-(N-hydroxy-C-methyl-carbonimidoyl)triazol-2-yl]-2-methyl-phenoxy]-3-methoxy-prop-2-enoate] | ≥ 80 | ≥ 80 | ≥ 80 | ≥ 80 | ≥ 80 | ≥ 80 | 146 to 150 | ≥ 80 | ≥ 80 | ≥ 80 | ≥ 80 | ≥ 80 | ≥ 80 | ≥ 80 | 
